Source: ChEMBL document CHEMBL1156646, “Natural products chemistry and taxonomy of the marine cyanobacterium Blennothrix cantharidosmum” (J Nat Prod, 2008)
Active and inactive are the calls of the source. The rule behind the calls is not given here.

Assays:
Plasmodium falciparum [1] = test: Antimalarial activity against Plasmodium falciparum at 10 ug/ml; assay type: functional, organism-based
Vibrio harveyi = test: Inhibition of bioluminescence in wild type Vibrio harveyi BB120 by quorum sensing assay; assay type: functional, organism-based, Vibrio harveyi ATCC BAA-1116
Plasmodium falciparum [2] = test: Antimalarial activity against Plasmodium falciparum; assay type: functional, organism-based

SMILES | Activity (Plasmodium falciparum [1]) | IC50 (Vibrio harveyi) [µM] | IC50 (Plasmodium falciparum [2]) [µM]
CCCCCCCC[C@H](C)C(=O)N1CCC[C@H]1C(=O)O[C@@H](C(=O)O[C@H](C(=O)O)C(C)C)C(C)C | inactive |  | 
CCCCCCCCC(C)[C@H](OC(C)=O)[C@H](C)C(=O)N1CCC[C@H]1C(=O)O (stereo partly drawn) [TUMONOIC ACID F] | inactive | 62 | 
CCCCC(C)/C=C(\C)[C@H](O)[C@H](C)C(=O)N1CCC[C@H]1C(=O)O (stereo partly drawn) | inactive |  | 
CCCC[C@H](C)C[C@H](C)C(=O)N1CCC[C@H]1C(=O)O[C@@H](C(=O)O[C@H](C(=O)O)[C@@H](C)CC)[C@@H](C)CC [TUMONOIC ACID I] |  |  | 2
CCCCCCCC[C@H](C)C(=O)N1CCC[C@H]1C(=O)O[C@@H](C(=O)O[C@@H](C)C(=O)O)[C@@H](C)CC | inactive |  | 
CCCCCCC/C=C(\C)[C@@H](O)[C@@H](C)C(=O)N1CCC[C@H]1C(=O)O | inactive |  | 
CCCCCCCC[C@H](C)C(=O)N1CCC[C@H]1C(=O)O | inactive |  | 
